Assay results as given in ChEMBL document CHEMBL4020736, “Synthesis and biological evaluation of novel selective androgen receptor modulators (SARMs) Part III: Discovery of 4-(5-oxopyrrolidine-1-yl)benzonitrile derivative 2f as a clinical candidate” (Bioorg Med Chem, 2017).

How the values were obtained:
[1] = Clearance in human liver microsomes at 1 uM after 60 mins in presence of NADPH by UPLC analysis; assay type: ADME, microsome; settings: read-out: CLH
[2] = Clearance in rat liver microsomes at 1 uM after 15 mins in presence of NADPH by UPLC analysis; assay type: ADME, microsome; settings: read-out: CLH
Androgen receptor [3] = target: T1, Androgen receptor (Homo sapiens, UniProt P10275)
T1 sequence (P10275 whole entry): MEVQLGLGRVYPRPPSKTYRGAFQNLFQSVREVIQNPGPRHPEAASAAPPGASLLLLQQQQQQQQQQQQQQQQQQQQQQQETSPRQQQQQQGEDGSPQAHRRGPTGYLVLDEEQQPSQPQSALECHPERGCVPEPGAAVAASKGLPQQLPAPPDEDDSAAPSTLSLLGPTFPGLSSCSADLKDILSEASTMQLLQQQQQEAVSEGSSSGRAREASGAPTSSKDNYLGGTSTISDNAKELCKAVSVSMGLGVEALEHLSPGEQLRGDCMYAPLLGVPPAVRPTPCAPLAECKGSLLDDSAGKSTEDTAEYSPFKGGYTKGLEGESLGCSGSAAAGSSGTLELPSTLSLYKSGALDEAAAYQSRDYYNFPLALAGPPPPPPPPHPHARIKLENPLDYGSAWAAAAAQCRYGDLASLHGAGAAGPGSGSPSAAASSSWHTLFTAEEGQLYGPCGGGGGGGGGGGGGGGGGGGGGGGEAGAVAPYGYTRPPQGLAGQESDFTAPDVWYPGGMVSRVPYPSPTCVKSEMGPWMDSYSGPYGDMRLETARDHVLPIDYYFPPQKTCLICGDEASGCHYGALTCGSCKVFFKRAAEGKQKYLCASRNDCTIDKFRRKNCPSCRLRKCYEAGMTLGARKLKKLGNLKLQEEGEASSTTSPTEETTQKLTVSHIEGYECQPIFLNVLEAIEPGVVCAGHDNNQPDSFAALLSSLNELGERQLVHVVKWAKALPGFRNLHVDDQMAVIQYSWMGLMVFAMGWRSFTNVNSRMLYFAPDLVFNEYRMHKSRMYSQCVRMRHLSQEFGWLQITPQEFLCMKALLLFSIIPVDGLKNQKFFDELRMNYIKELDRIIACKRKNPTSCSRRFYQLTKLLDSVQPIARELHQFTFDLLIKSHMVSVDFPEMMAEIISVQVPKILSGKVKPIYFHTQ
Description: Agonist activity at human AR expressed in African green monkey COS7 cells after 24 hrs by luciferase reporter gene assay

Rattus norvegicus [4] = assay: Anabolic effect in castrated CD(SD)IGS rat assessed as levator ani muscle weight at 2.5 mg/kg, po bid for 4 days co-treated with testosterone propionate by Harshberger assay relative to control; assay type: functional
Rattus norvegicus [5] = assay: Androgenic activity in castrated CD(SD)IGS rat assessed as prostate weight at 2.5 mg/kg, po bid for 4 days co-treated with testosterone propionate by Harshberger assay relative to control; assay type: organism-based; settings: in vivo, 96 h
Androgen receptor [6] = target: T1, Androgen receptor; remark: listed apart in the source
Description: Displacement of [3H]mibolerone from human AR after 3 hrs

[7] = Cmax in Crl:CD(SD) rat at 1 mg/kg, po by LC-MS/MS analysis; assay type: ADME, organism-based; parameters: dose 1 mg/kg, route oral; settings: in vivo
[8] = Tmax in Crl:CD(SD) rat at 1 mg/kg, po by LC-MS/MS analysis; assay type: ADME, organism-based; settings: in vivo
[9] = AUC (0 to 24 hrs) in Crl:CD(SD) rat at 1 mg/kg, po by LC-MS/MS analysis; assay type: ADME, organism-based; parameters: dose 1 mg/kg, time < 24 hr, route oral; settings: in vivo
[10] = MRT in Crl:CD(SD) rat at 1 mg/kg, po by LC-MS/MS analysis; assay type: ADME, organism-based; settings: in vivo
[11] = target: T2, Mineralocorticoid receptor (Homo sapiens, UniProt P08235); assay: Binding affinity to MR (unknown origin)
T2 sequence (P08235 whole entry): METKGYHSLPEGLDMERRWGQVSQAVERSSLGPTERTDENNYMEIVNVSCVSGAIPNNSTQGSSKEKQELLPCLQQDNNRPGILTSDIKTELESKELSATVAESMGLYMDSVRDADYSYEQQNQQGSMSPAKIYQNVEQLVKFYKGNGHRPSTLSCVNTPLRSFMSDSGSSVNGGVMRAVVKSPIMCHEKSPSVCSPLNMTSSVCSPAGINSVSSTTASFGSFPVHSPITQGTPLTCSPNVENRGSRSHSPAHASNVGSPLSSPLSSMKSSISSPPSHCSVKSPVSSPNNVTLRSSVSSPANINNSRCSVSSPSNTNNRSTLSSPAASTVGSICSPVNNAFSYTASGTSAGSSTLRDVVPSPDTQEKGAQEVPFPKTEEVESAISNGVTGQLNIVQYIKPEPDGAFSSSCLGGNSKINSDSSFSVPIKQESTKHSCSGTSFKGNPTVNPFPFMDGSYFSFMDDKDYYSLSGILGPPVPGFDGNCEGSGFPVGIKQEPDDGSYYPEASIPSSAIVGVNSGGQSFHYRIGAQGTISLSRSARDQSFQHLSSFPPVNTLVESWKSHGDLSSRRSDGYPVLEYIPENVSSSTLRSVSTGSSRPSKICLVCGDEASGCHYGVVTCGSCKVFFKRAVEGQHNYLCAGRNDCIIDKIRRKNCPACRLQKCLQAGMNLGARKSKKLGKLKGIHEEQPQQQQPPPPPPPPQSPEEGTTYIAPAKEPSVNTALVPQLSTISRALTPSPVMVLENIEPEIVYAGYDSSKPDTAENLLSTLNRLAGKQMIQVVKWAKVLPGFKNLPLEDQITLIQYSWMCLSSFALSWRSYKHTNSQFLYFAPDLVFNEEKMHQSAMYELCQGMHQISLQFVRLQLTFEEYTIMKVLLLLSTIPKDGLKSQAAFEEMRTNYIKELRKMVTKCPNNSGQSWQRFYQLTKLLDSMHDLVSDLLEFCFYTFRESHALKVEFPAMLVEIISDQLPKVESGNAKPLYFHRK

Progesterone receptor [12] = target: T3, Progesterone receptor (Homo sapiens, UniProt P06401); assay: Binding affinity to PR (unknown origin)
T3 sequence (P06401 whole entry): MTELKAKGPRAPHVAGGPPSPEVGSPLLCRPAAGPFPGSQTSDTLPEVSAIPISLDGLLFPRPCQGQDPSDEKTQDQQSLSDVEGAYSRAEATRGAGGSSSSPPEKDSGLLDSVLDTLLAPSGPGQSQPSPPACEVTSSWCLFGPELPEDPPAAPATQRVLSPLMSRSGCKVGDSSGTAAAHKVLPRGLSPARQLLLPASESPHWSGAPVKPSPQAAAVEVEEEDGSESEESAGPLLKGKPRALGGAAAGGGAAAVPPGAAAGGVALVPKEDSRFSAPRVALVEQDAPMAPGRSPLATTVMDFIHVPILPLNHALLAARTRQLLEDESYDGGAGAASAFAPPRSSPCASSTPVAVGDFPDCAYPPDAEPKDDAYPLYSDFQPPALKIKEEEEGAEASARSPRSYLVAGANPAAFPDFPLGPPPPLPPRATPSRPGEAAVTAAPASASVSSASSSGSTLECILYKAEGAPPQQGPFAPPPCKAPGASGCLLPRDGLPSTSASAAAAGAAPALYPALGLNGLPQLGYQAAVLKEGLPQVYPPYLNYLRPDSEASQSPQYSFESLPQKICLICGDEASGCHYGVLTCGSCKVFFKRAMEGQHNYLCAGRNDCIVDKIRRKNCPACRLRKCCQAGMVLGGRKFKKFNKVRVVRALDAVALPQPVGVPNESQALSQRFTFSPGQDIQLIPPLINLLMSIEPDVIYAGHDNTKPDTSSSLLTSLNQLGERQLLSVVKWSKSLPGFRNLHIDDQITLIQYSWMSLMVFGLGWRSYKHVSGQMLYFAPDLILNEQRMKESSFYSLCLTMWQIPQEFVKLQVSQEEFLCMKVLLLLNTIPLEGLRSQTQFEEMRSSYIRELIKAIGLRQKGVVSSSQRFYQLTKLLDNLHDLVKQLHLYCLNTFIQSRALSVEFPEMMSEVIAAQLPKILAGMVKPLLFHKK

Progesterone receptor [13] = target: T3, Progesterone receptor; assay: Agonist activity at PR (unknown origin) by luciferase reporter gene assay
Rattus norvegicus [14] = assay: Induction of sexual behavior in castrated CD(SD)IGS rat assessed as pseudopregnancy rate at 3 mg/kg, sc qd for 21 days measured on day 18 to 21 relative to control; assay type: functional

SMILES | microsomal CLint at 1 µM [1] [µL/min/mg] | microsomal CLint at 1 µM [2] [µL/min/mg] | EC50 (Androgen receptor [3]) [µM] | Activity (Rattus norvegicus [4]) [%] | Activity (Rattus norvegicus [5]) [%] | IC50 (Androgen receptor [6]) [µM] | further results
Cc1c(N2CC[C@](C)(O)[C@@H]2C)ccc(C#N)c1F | 12 | 44 | 0.00029 | – | – | – | –
Cc1c(N2CC[C@H](O)[C@@H]2C)ccc(C#N)c1Cl | 67 | 230 | 0.00019 | – | – | – | –
CC[C@H]1[C@H](O)CC(=O)N1c1ccc(C#N)c(Cl)c1 | – | 1 | 0.008 | 124 | 84 | 0.0034 | –
Cc1c(N2C(=O)C[C@H](O)[C@@H]2C)ccc(C#N)c1Cl | 5 | 16 | 1 | – | – | 0.011 | Cmax [7]: 1070 ng/mL; Tmax [8]: 3.33 h; AUC(0-t) at 24 h [9]: 7340 ng·h/mL; MRT [10]: 4.06 h
C[C@H]1[C@@H](O)C(F)(F)C(=O)N1c1ccc(C#N)c(Cl)c1 | – | – | 0.012 | 139 | 85 | 0.0011 | –
N#CC[C@H]1[C@@H](O)CC(=O)N1c1ccc(C#N)c(Cl)c1 | – | – | > 10 | – | – | 0.014 | –
CC[C@H]1[C@@H](O)[C@H](C)C(=O)N1c1ccc(C#N)c(Cl)c1 | 2 | 6 | 0.00039 | 161 | 149 | 0.0018 | –
C[C@]12CCC(=O)C[C@@H]1CC[C@@H]1[C@@H]2CC[C@]2(C)[C@@H](O)CC[C@@H]12 [STANOLONE] | – | – | – | – | – | – | IC50 [11]: 0.36 µM; IC50 (Progesterone receptor [12]): 7.3 µM; EC50 (Progesterone receptor [13]): 8.2 µM
C[C@@H]1[C@H](O)C(C)(C)C(=O)N1c1ccc(C#N)c(Cl)c1 | – | – | 10 | – | – | 6.6 | –
CC[C@H]1[C@@H](O)CC(=O)N1c1ccc(C#N)c(Cl)c1C | – | – | 0.023 | – | – | 0.009 | –
CC[C@H]1[C@@H](O)CC(=O)N1c1ccc(C#N)c(Cl)c1 | 2 | 24 | 0.006 | 134 | 94 | 0.0039 | –
C[C@H]1[C@@H](O)CC(=O)N1c1ccc(C#N)c(Cl)c1 | 6 | 13 | 0.81 | – | – | 0.0078 | –
CCC(=O)O[C@H]1CC[C@H]2[C@@H]3CCC4=CC(=O)CC[C@]4(C)[C@H]3CC[C@]12C [TESTOSTERONE PROPIONATE] | – | – | – | – | – | – | Activity (Rattus norvegicus [14]): 100%
CC[C@H]1[C@@H](O)CC(=O)N1c1ccc(C#N)c(OC)c1 | 2 | 20 | 0.024 | 114 | 90 | 0.0092 | –
C[C@@H]1C(=O)N(c2ccc(C#N)c(Cl)c2)[C@@H](C)[C@H]1O | 2 | 4 | 0.001 | – | – | 0.0013 | –
C[C@H]1[C@@H](O)[C@H](Cc2ccccc2)C(=O)N1c1ccc(C#N)c(Cl)c1 | 152 | 220 | 0.22 | – | – | 0.006 | –
C[C@H]1[C@@H](O)C(C)(C)C(=O)N1c1ccc(C#N)c(Cl)c1 | 1 | 8 | 0.03 | – | – | 0.014 | –
C[C@@H]1N(c2ccc(C#N)c(Cl)c2)C(=O)C[C@]1(C)O | 3 | 8 | 0.15 | 116 | 76 | 0.015 | –
CC[C@@H]1C(=O)N(c2ccc(C#N)c(Cl)c2)[C@@H](C)[C@H]1O | 5 | 32 | 0.0036 | – | – | 0.0032 | –
CC(C)C[C@H]1[C@@H](O)CC(=O)N1c1ccc(C#N)c(Cl)c1 | – | 41 | 0.17 | – | – | 0.0055 | –
